According to patent US11447511B2, “Dioxolane analogues of uridine for the treatment of cancer” (MEDIVIR AB, priority 2014, dated 2022):

Tests used:
[1] = Cell cytotoxicity assay, HUH7; assay type: cell-based; conditions: human; Huh7 cells, 5 days at 37° C., XTT dye
Method: (§1) Cells were seeded 24 hours prior to compound addition. Each test compound (serially diluted from 100 μM) was added to Huh7 (1.5×10^4 cells/well) or HepG2 (1.5×10^4 cells/well), and allowed to incubate for 5 days at 37° C. A medium only control was used to determine the minimum absorbance value and an untreated cell value. At the end of the growth period, XTT dye from Polysciences Europe GmbH was added to each well. The absorbance at 450 nm with a reference wavelength of 600 nm was read with a Sunrise (Tecan) using the medium only control wells as blanks. The 50% inhibition value (CC50) was determined by comparing the degree of inhibition (compared to cell control) plotted against compound concentration. Results from the dilution series were fitted to a sigmoidal dose-response curve.
(§2) Compounds of the invention were evaluated in these assays to assess the stability in human intestinal S9 fraction (HIS9) and human liver S9 fraction (HLS9), and for Cell Cytotoxicity in HUH7, HEP3B and HEPG2 cells.

[2] = Cell cytotoxicity assay, HEP3B; assay type: cell-based; conditions: human, HEP3B cells
Method: as §1, §2

[3] = Stability in human liver S9 fraction (HLS9); assay type: in vitro ADME; conditions: liver S9 fraction, pH 7.4; human liver S9 0.4 mg protein/mL, 5 μM test compound, 37° C.
Method: (§3) Stability in Human Intestinal S9 Fraction (HIS9) and in Human Liver S9 Fraction (HLS9),
(§4) Stock solutions of each test compound (10 mM) were prepared in DMSO and stored at −20° C. Prior to the start of the experiment, the test compounds were diluted to 500 μM in 50% acetonitrile in water. The reaction mixture was prepared in a total volume of 250 μL containing 5 mM MgC2, 1 mM NADPH and 5 μM test compound in 50 mM potassium phosphate buffer (pH 7.4). The reaction was initiated by addition of human liver or intestinal S9 fraction with a final concentration of 0.4 mg protein/mL (Xeno Tech). The reaction mixture was incubated on an orbital shaker at 37° C. At the desired time points (0, 10, 30 and 60 minutes) aliquots of 50 μL were taken and the reaction was stopped by mixing with 150 μL acetonitrile containing internal standard. Standard solutions of each test compound were prepared from the 500 μM solution by diluting the solution to a final concentration of 5 μM in boiled human S9 (0.4 mg protein/mL), 5 mM MgCl2 and 50 mM potassium phosphate buffer (pH 7.4). The standards and samples were kept on ice for 30 min then centrifuged at 3 000 g for 20 minutes at 10° C., there after 10 μL of supernatant was mixed with 200 μL 50% acetonitrile in water. 0.5 μM of each test compound in 50% acetonitrile in water was injected into the LC/MS-MS to determine the daughter ion, declustring potential (DP), collision energy (CE) and collision cell exit potential (CXP) in order to develop a LC/MS-MS method. The compounds were separated using a C18 column with a QTRAP5500 system. The mobile phase consisted of solvent A (98% water, 2% acetonitrile, 0.1% acetic acid or 10 mM ammonium acetate) and solvent B (80% acetonitrile, 20% water, 0.1% acetic acid or 10 mM ammonium acetate). Elution of the compounds was performed by using a gradient of solvent B from 0% to 100%. 5 μL of standard points and samples were injected for analysis with QTRAP5500.
(§5) The amount of parent compound was determined on the basis of the peak area for each time point compared to standard which was set to 5 μM. Intrinsic clearance (CLint) and half-life (t1/2) were determined from the disappearance curves of the test compound using Excel software.

[4] = Stability in human intestinal S9 fraction (HIS9); assay type: in vitro ADME; conditions: human intestinal S9 0.4 mg protein/mL, 5 μM test compound, 37° C.
Method: as §3, §4, §5

[5] = tested on: HIV; conditions: relative to 3TC; cited from earlier work
[6] = tested on: HBV in Hep G2.2.15 cells; conditions: cited from earlier work
[7] = Cell cytotoxicity assay, HEPG2; assay type: cell-based; conditions: human; HepG2 cells, 5 days at 37° C., XTT dye
Method: as §1, §2

CCC[C@H](C)OC(=O)[C@H](C)NP(=O)(OC[C@H]1OC[C@@H](n2cc(F)c(N)nc2=O)O1)Oc1cccc(C2CC2)c1 (single isomer, unassigned) [29 dia-2]
CC50 at 5 days [1]: 495 nM
CC50 at 5 days [2]: 75 nM
microsomal CLint at 5 μM [3]: 36 µL/min/mg
microsomal CLint at 5 μM ([4]; intestinal S9 fraction, pH 7.4): 18 µL/min/mg

COC(=O)C(C)NP(=O)(OC[C@@H]1O[C@H](n2ccc(N)nc2=O)CS1)Oc1ccccc1 (some centres unmarked) [CF 1109]
fold less active against HIV than parent nucleoside 3TC [5]: ~250 fold
effectiveness against HBV compared with parent nucleoside 3TC [6]: virtually equally effective

COC(=O)[C@H](C)NP(=O)(OC[C@H]1OC[C@@H](n2ccc(N)nc2=O)O1)Oc1ccc(C2CC2)cc1 (single isomer, unassigned) [34 dia-2]
CC50 at 5 days [1]: 524 nM
CC50 at 5 days [2]: 210 nM
CC50 at 5 days [7]: 236 nM
microsomal CLint at 5 μM [3]: 64 µL/min/mg
CLint Intestinal S9 [4]: 6 µL/min/mg

COC(=O)[C@H](C)NP(=O)(OC[C@H]1OC[C@@H](n2ccc(N)nc2=O)O1)Oc1ccc(Br)cc1 (single isomer, unassigned) [27 dia-2]
CC50 at 5 days [1]: 1020 nM
CC50 at 5 days [2]: 348 nM
CC50 at 5 days [7]: 223 nM
microsomal CLint at 5 μM [3]: 57 µL/min/mg
CLint Intestinal S9 [4]: 6 µL/min/mg

CC(C)OC(=O)[C@H](C)NP(=O)(OC[C@H]1OC[C@@H](n2ccc(=O)[nH]c2=O)O1)Oc1ccccc1 (stereo partly drawn) [Example 1, (2S)-isopropyl 2-(((((2S,4S)-4-(2,4-dioxo-3,4-dihydropyrimidin-1(2H)-yl)-1,3-dioxolan-2-yl)methoxy)(phenoxy)phosphoryl)amino)propanoate]
CC50 at 5 days [1]: > 100000 nM
CC50 at 5 days [7]: > 100000 nM
microsomal CLint at 5 μM [3]: 12 µL/min/mg
CLint Intestinal S9 [4]: 6 µL/min/mg

Nc1ccn([C@@H]2CO[C@H](CO)O2)c(=O)n1 [Troxacitabine, 4-amino-1-((2S,4S)-2-(hydroxymethyl)-1,3-dioxolan-4-yl)pyrimidin-2(1H)-one, reference compound]
CC50 at 5 days [1]: 646 nM
CC50 at 5 days [2]: 279 nM
CC50 at 5 days [7]: 218 nM
